Laboratory results taken from the NIST ThermoML archive (doi:10.1007/s10765-011-1128-2).

Conditions: Crystal

O [water]
Conditions | vapor or sublimation pressure [kPa]
223.15 K | 0.003925
228.15 K | 0.007147
233.15 K | 0.01277
238.14 K | 0.02221
243.16 K | 0.03791
248.16 K | 0.06315
253.14 K | 0.103
258.15 K | 0.165
263.15 K | 0.2596
268.15 K | 0.4016
273.16 K | 0.6117
